Data: patent publication US20260130906A1, “THERAPY COMPRISING ANTI-CD19 ANTIBODY AND SUMO-ACTIVATING ENZYME INHIBITOR” (TAKEDA PHARMACEUTICAL COMPANY LIMITED, priority 2021, published 2026)

Tests used:
[1] = test system: OCI-Ly10 human xenograft tumor model; assay: Study 2: OCI-Ly10 human xenograft tumor model; format: in vivo, CB17 SCID mice; conditions: for GRI % / Tumor volume on Day 25 (±SEM): OCI-Ly10; for GRI %: Day 25, vs vehicle; for Tumor volume on Day 25 (±SEM): in mm³ (unit assumed); for tumor growth inhibition as a single agent (in words): human OCI-Ly10 DLBCL mouse model
Experimental: The differences in the tumor growth trends over time between pairs of treatment groups were assessed by fitting each animal's data to a simple exponential growth model and comparing the mean growth rates of the two groups, as described in more detail below. The difference in the growth rates was summarized by the GRI, which is the reduction in growth rate experienced by the treatment group relative to that of the reference group, expressed as a fraction of the vehicle growth rate.
A GRI greater than 100% is interpreted as tumor regression when the vehicle group is the same as the reference group. A negative value of the GRI means that the tumors in the treatment group grew faster than the tumors in the reference group. Statistical significance was determined using an unpaired t-test.
Low tumor volumes can cause problems with the data analysis, so all measurements below 25 cubic mm (including 0 values) were excluded from the analysis. After this exclusion step, the tumor volume was assumed to follow an exponential growth model. More specifically, for a given animal and treatment group,
Combination analysis was performed to determine if there was a benefit from combining drug treatments. This analysis was also based on the estimated tumor growth rates. The measure of synergy was defined as
Here, μAB, μA, μB, and μControl are the mean growth rates for the combination, drug A, drug B, and control groups, respectively. As before, μV is the mean tumor growth rate for the vehicle group, which in most cases is the same as the control group. The standard error of the synergy score was calculated as the square root of the sum of squared standard errors across the four groups. The degrees of freedom were estimated using the Welch-Satterthwaite equation. A hypothesis test was performed to determine if the synergy score differed from 0. P-values were calculated by dividing the synergy score by its standard error and tested against a t-distribution (two-tailed) with the above-calculated degrees of freedom. A P value of less than 0.05 is statistically significant.
The combination results can be interpreted as follows. Statistically significant negative synergy scores indicate a synergistic combination (“Syn.”). Statistically significant positive synergy scores indicate a sub-additive combination (“Sub-add.”) when the combination performs better (i.e. has a lower growth rate) than the best performing single agent. Statistically significant positive synergy scores indicate an antagonistic combination (“Antag.”) when the combination performs worse than the best performing single agent. Scores that are not statistically significant should be considered additive (“Add.”).
OCI-Ly10 is a human DLBCL cell line. An OCI-Ly10 human xenograft tumor model was generated by subcutaneous inoculation in the flank of 8 week old female CB17 SCID mice (Charles River Laboratories, Wilmington, MA) with 4.0×10^6 OCI-Ly10 cells (cell suspension in 0.1 ml IMDM with Matrigel 1:1). When the mean tumor volume reached approximately 175 mm^3, the animals were randomized into one vehicle control group and 7 treatment groups (n=7/group) as described in Table 2a. Mice were then dosed with 20% HPβCD or Compound I-263a and/or tafasitamab over a 3 week period. In the combination treatment groups, I-263a was administered first, followed immediately by the administration of tafasitamab. Tumor growth and body weight were measured twice per week during the treatment and post-treatment periods, and mice were humanely euthanized once they had reached their humane endpoint. Tumors were measured using Vernier calipers and volumes were calculated using standard equation: V=W^2×L/2, where V=volume, W=width, and L=length for the tumor.
A 0.75 mg/mL stock solution of I-263a was formulated weekly in 20% HPβCD and administered intravenously (IV) based on an average body weight using a 0.2 mL dosing volume. Final dose of I-263a received was 7.5 mg/kg. […]

DAUDI = assay: ADCP assay (macrophages); format: cell-based, human; conditions: macrophages pre-treated 1 μM TAK-981 and/or 1 nM tafasitamab, E:T 2:1, 3 h, FIG. 4
Experimental: Monocytes were positively selected from PBMCs using CD14 MicroBeads on a MACS LS column according to the manufacturer's protocol (Miltenyi Biotec). Isoltaed cells were re-suspended in RPMI medium supplemented with 10% FCS and 1× GlutaMax. Monocytes were maturated into macrophages in T-flasks for 6 to 7 days in the presence of 50 ng/ml M-CSF.
After maturation, macrophages were stained with 2 μM CFSE and detached using 5 mM EDTA and scraping. After washing with PBS, macrophages were re-suspended in medium containing either DMSO (negative control) or 1 μM TAK-981 and allowed to re-attach in 96 well culture plates for 16-24 hours. Target cells were stained using the CellTrace Violet Cell Proliferation Kit (Invitrogen) and co-cultured with pre-treated macrophages in the presence or absence of 1 nM tafasitamab for 3 hours at an E:T ratio of 2:1. The cells were detached using 0.05% Trypsin-EDTA and transferred into multi-well flow cytometry plates. Using flow cytometry the percentage of phagocytosis was evaluated, defined as the percentage of double positive cells out of all CellTrace Violet positive cells.

[2] = test system: SUMO-activating enzyme and SUMOylation; assay: Inhibition of SAE and SUMOylation in cultured tumor cell lines; format: cell-based; conditions: cultured mouse and human tumor cell lines
Text: (§1) SAE inhibitors, as disclosed herein, are described, for example, in US 2016/0009744 and U.S. Pat. No. 9,695,154 which is hereby incorporated by reference in its entirety. They may be prepared by methods known to one skilled in the art and/or according to the methods described in US 2016/0009744 and U.S. Pat. No. 9,695,154 . . . . Central to the mechanism of action of useful SAE inhibitors, such as Compound I-263a, in combinations and methods of the present disclosure is production of type 1 IFNs and induction of an innate immune response with activation of both natural killer (NK) cells and macrophages.

SUMO-activating enzyme = SUMO-activating enzyme (Homo sapiens, UniProt Q9UBT2); assay: Biochemical assays of SUMO-activating enzyme inhibition
Text: as §1

Sequence of SUMO-activating enzyme (Q9UBT2 whole entry): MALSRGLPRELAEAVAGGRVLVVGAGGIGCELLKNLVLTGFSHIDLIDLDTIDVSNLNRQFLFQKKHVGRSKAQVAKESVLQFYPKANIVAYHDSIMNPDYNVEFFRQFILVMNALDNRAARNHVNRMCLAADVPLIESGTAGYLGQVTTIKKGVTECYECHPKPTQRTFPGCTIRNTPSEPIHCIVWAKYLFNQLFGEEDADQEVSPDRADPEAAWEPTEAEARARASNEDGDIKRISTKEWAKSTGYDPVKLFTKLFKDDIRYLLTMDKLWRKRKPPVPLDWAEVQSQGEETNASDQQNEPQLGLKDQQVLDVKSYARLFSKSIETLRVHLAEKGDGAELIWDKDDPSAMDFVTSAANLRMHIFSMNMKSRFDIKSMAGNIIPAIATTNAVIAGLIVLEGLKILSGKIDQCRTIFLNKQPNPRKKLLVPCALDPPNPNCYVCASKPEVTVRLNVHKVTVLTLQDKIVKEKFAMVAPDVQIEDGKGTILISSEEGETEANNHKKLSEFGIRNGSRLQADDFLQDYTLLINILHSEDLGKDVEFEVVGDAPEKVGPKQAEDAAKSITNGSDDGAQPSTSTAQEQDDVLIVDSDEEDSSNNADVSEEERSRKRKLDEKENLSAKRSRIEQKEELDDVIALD
Sequence of SUMO-activating enzyme (Q9UBE0 whole entry partner): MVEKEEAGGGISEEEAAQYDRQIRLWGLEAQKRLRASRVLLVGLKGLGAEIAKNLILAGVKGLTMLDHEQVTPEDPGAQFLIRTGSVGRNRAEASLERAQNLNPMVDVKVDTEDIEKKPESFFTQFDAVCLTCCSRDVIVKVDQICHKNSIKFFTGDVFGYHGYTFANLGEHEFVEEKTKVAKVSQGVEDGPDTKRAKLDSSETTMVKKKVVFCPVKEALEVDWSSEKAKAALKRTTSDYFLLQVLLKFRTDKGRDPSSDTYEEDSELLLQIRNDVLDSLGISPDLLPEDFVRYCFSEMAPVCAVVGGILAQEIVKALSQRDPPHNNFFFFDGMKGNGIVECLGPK
Sequence of SUMO-activating enzyme (P63165 1-97 partner limits assumed): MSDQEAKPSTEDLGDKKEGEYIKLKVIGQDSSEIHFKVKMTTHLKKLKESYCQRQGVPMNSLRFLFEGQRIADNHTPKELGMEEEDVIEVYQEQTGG

| Compound | GRI % ([1]; tafasitamab 3 mg/kg IP BIW) [%] | GRI % ([1]; tafasitamab 10 mg/kg IP BIW) [%] | GRI % ([1]; tafasitamab 20 mg/kg IP BIW) [%] | Tumor volume on Day 25 (±SEM) ([1]; tafasitamab 3 mg/kg IP BIW 3 weeks) | Tumor volume on Day 25 (±SEM) ([1]; tafasitamab 10 mg/kg IP BIW 3 weeks) | Tumor volume on Day 25 (±SEM) ([1]; tafasitamab 20 mg/kg IP BIW 3 weeks) | tumor growth inhibition as a single agent (in words) [1] | Phagocytosis (DAUDI) | GRI % ([1]; I-263a 7.5 mg/kg IV BIW) [%] | Tumor volume on Day 25 (±SEM) ([1]; I-263a 7.5 mg/kg IV BIW 3 weeks) | inhibition of SUMO-activating enzyme and SUMOylation [2] | inhibition of SUMO-activating enzyme activity (SUMO-activating enzyme; mechanism-based, covalent adduct with SUMO) | selectivity for SUMO-activating enzyme (SUMO-activating enzyme; over ubiquitin-activating enzyme, Nedd8-activating enzyme, autophagy related 7 enzyme) |
| --- | --- | --- | --- | --- | --- | --- | --- | --- | --- | --- | --- | --- | --- |
| Tafasitamab: humanized monoclonal antibody that targets the antigen CD19, engineered in the IgG Fc-region to enhance ADCC; sequences in Table 1 | 37 | 43 | 36 | 701 ± 94.2 | 745.1 ± 154.2 | 809.2 ± 129.1 | inhibits tumor growth | effectively phagocytosed |  |  |  |  |  |
| Cc1sc(C(=O)c2cncnc2N[C@@H]2C[C@H](COS(N)(=O)=O)[C@@H](O)C2)cc1[C@@H]1NCCc2ccc(Cl)cc21 [Compound I-263a, [(1R,2S,4R)-4-{[5-({4-[(1R)-7-chloro-1,2,3,4-tetrahydroisoquinolin-1-yl]-5-methyl-2-thienyl}carbonyl)pyrimidin-4-yl]amino}-2-hydroxycyclopentyl]methyl sulfamate] |  |  |  |  |  |  | inhibits tumor growth | effectively phagocytosed | 55 | 615.9 ± 106.4 | Selective and potent inhibition | potently inhibits enzyme activity | Strong selectivity |
